Like-named read-outs stand apart in the source and are kept apart here.
Assays:
[1] = test system: P. falciparum Dd2; experiment: Antiplasmodial SYBR Green I proliferation assay, P. falciparum Dd2; type: cell-based; conditions: Plasmodium falciparum
Description: (§1) Antiplasmodial activity against P. falciparum 3D7 (A, C and E) and P. falciparum Dd2 (B, D, F). […] Curves were plotted using non-linear regression based on means from three independent experiments measured in triplicate. Error bars indicate standard deviation, whose values are provided in the respective table.
(§2) Plasmodium falciparum culture and antiplasmodial activity. […] Development, parasitaemia, and morphology of parasites were monitored by light microscopy of thin blood smears stained according to the Romanowsky method (Panótico Rápido staining kit; Laborclin, Pinhais, Paraná, Brazil). […] Fresh 0^+ blood was generously provided by “Hospital Novo Atibaia” (Atibaia, SP, Brazil), and approved by the ethics committee at ICB-USP. The antiplasmodial effect of all compounds was validated against P. falciparum 3D7 strain conducting SYBR Green I (Invitrogen) drug assays as previously reported[30],[46] as a modification of the original procedure. […] Parasite proliferation was measured by the DNA load via fluorescence, using 100 μL of a lysis buffer with SYBR Green I (0.02% v/v) and incubated for 1 h at room temperature in the dark. […] Focal and gain adjustment was performed using the non-treated controls (highest expected fluorescence signal). Data was acquired via the CLARIOstar (V5.20) and MARS software, manually scaled to 0–100%, and plotted using GraphPad Prism (v9.5.2 for Windows, GraphPad Software, La Jolla California USA, www.graphpad.com). Non-treated parasites, the highest solvent concentration on parasites, CQ on parasites, and the highest drug concentration in the medium were used as controls for maximal growth, solvent control, positive biological control, and native drug fluorescence, respectively.

[2] = test system: HepG2 cells; experiment: Cytotoxicity in human HepG2 cells (WST-1); type: cell-based; conditions: read-out: IC50 HepG2
Procedure: Cytotoxicity in human HepG2 cells.[47] […] Cytotoxic effects of compounds were assessed using the cell proliferation reagent WST-1 (Roche; CELLPRO-RO) in a 96-well plate-based screening assay. HepG2 cells were seeded at 10^4 cells/well (100 μL) in 96-well flat-bottom plates (Sarstedt) the night before the experiment to allow attachment of cells. The next day, two-fold serial dilutions of compounds were prepared in fresh medium in an extra plate, and the medium of cells was replaced by the medium containing the compound dilutions. Non-treated cells (max. proliferation), cells treated with the maximal solvent concentration (DMSO; solvent control), and medium with the maximal compound concentration (native absorbance) used as controls. […] Subsequently, 10 μL WST-1 was added to each well and plates were incubated for additional 4 h under standard conditions. WST-1 is a tetrazolium salt and is metabolised by the mitochondrial succinate-tetrazolium-reductase system of living cells and forms formazan, whose absorbance was measured at 450 nm. Absorbance at 630 nm was assessed to check for protein and precipitation background. Both measurements were acquired via the CLARIOstar (V5.20) and MARS software, manually scaled to 0–100%, and plotted with GraphPad Prism (version 9.5.2 for Windows, GraphPad Software, La Jolla California USA).

[3] = test system: P. falciparum 3D7; experiment: Antiplasmodial SYBR Green I proliferation assay, P. falciparum 3D7; type: cell-based, Plasmodium falciparum; conditions: read-out: IC50 Pf3D7
Description: as §1, §2

[4] = target: T1, PfHDAC1 (Plasmodium falciparum, UniProt Q7K6A1); experiment: In vitro PfHDAC1 enzymatic assay; type: biochemical
T1 construct: purchased BPS Bioscience (San Diego, CA)
T1 sequence (Q7K6A1 1-449): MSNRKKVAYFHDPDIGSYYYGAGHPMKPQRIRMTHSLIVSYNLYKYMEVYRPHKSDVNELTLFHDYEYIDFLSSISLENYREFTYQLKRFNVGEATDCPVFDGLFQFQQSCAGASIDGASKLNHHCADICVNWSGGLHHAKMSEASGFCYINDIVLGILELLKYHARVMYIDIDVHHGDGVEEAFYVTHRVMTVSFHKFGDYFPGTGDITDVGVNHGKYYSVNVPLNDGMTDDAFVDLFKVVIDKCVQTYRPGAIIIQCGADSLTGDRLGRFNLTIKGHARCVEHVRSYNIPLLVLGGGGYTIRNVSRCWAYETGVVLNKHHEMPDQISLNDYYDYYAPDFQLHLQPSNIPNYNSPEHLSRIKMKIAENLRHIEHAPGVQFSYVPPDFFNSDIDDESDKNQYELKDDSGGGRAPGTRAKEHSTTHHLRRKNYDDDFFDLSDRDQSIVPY
Procedure: In vitro PfHDAC1 enzymatic assay. PfHDAC inhibition assays were performed by BPS Bioscience (San Diego, CA). […] Then, each DMSO solution was directly diluted 10 × fold into the HDAC assay buffer for an intermediate dilution of 10% DMSO in HDAC assay buffer. Then, 5 µL of the intermediate dilution was added to a 50 µL reaction so that the final concentration of DMSO is 1% in all the reactions. […] Fluorescence intensity was measured at an excitation of 360 nm and an emission of 460 nm using a Tecan Infinite M1000 microplate reader. […] The fluorescent intensity data were analyzed using GraphPad Prism (v9.5.2). In the absence of the compound, the fluorescent intensity (Ft) in each data set was defined as 100% activity. In the absence of HDAC, the fluorescent intensity (Fb) in each data set was defined as 0% activity. The percent activity in the presence of each compound was calculated according to the following equation: % activity = (F-Fb)/(Ft-Fb), where “F” is the fluorescent intensity in the presence of the compound.

[5] = test system: acetylated histone H3; experiment: Western blot of acetylated histone H3 in infected erythrocytes; type: cell-based, Plasmodium falciparum; conditions: 10 × IC50 for 4 h, trophozoites, vs DMSO
Procedure: (§3) Figure 5 Hydroxamic acid derivatives as potent in vitro PfHDAC1 inhibitors. […]. Enzyme activity was calculated by normalizing the data against the DMSO treated samples and discounting the background. Data are presented as shown above, with mean ± S.D. (n = 2). […]. Comparison of group/concentration against the DMSO control is represented as † for P < 0.0001. […]. Numbers on side of the bands represent the predicted mass (kDa) for each protein. (C,D) Band quantification of histone H3 (C) and H4 (D), respectively, normalizing their acetylated detection against their unmodified version. Differences to this value were analyzed by one way ANOVA using the Dunnett’s post correction, comparing each group against the DMSO control, as rank tests where P values are explicitly depicted.
(§4) Western Blot analysis. […]. Proteins were transferred to PVDF membranes, 5% non-fat dry milk in TBS with Tween 20 (0.1%) was used as blocking agent for 1 h at room temperature. After, incubated with the antibodies overnight at 4 °C (Acetyl Histone H3 Lys9 C5B11 Cell Signaling, Acetyl Histone H4 Lys16 E2B8W Cell Signaling, Histone H3 96C10 Cell Signaling and Histone H4 D2X4V Cell Signaling). For the analysis of protein acetylation levels, the membranes were stripped and re-probed with the corresponding anti-total protein. Mouse monoclonal anti-α-Tubulin (B512 Sigma-Aldrich) was used as loading control. Detection was performed by enhanced chemiluminescence using horseradish peroxidase-conjugated secondary antibodies (Vector Laboratories, Burlingame, CA, USA) and SuperSignal TM West Pico PLUS Chemiluminescent substrate kit (Thermo Scientific). Images were acquired using ChemiDoc TM Imaging System (BioRad Laboratories, CA, USA). Quantitative densitometry was carried out using ImageLab software (Bio-Rad Laboratories, CA, USA). The volume density of the chemiluminescent bands was calculated as an integrated optical density × mm^2 after background correction from each independent experiment (N = 3).

[6] = test system: acetylated histone H4; experiment: Western blot of acetylated histone H4 in infected erythrocytes; type: cell-based, Plasmodium falciparum; conditions: 10 × IC50 for 4 h, trophozoites, vs DMSO
Procedure: as §3, §4

[7] = test system: P. falciparum 3D7; conditions: Fig. 1A; cited from earlier work

For `CCN(CC)CCCC(C)Nc1ccnc2cc(Cl)ccc12` (centres unmarked) [Chloroquine, reference compound], the IC50 ([1]; DD2, read-out: IC50 P. falciparum Dd2) was 430 nM, the IC50 ([2]; Homo sapiens, HepG2, 48 h) was over 100000 nM and the IC50 ([3]; Plasmodium falciparum, 3D7, 96 h) was 15 nM.

Work on `CCCCN(Cc1ccc(C(=O)NO)cc1)C(=O)Nc1ccccc1` [Nexturastat A (16), Nexturastat A, reference compound] yielded an IC50 ([1]; DD2, multidrug/CQ-resistant strain, read-out: IC50 P. falciparum Dd2) of 290 nM, an inhibition at 1 µM ([4]; recombinant PfHDAC1) of 58% and an inhibition at 10 µM ([4]; 10 µM, recombinant PfHDAC1) of 92%. For the same compound, the IC50 ([2]; Homo sapiens, HepG2, 48 h, WST-1) was 21500 nM, the IC50 ([3]; 96 h, values in brackets 95% confidence intervals) was 230 nM and the IC50 ([3]; Plasmodium falciparum, 3D7, 96 h, 96 h, values in brackets 95% confidence intervals) was 210 nM. For the same compound, the “Acetylated-H3 level (normalised to unmodified H3)” value [5] was “non-statistically significant increase” and the “Acetylated-H4 level (normalised to unmodified H4)” value [6] was “non-statistically significant increase”.

Work on `O=C(CCCCCCC(=O)Nc1ccccc1)NO` [Vorinostat (SAHA, 1), Vorinostat, reference compound] yielded an IC50 [4] of 100 to 1000 nM, an inhibition at 1 µM ([4]; recombinant PfHDAC1) of 83% and an IC50 ([2]; 48 h, WST-1) of 2870 nM. The “Acetylated-H3 level (normalised to unmodified H3)” value [5] was “non-statistically significant increase” and the “Acetylated-H4 level (normalised to unmodified H4)” value [6] was “non-statistically significant increase”.

For `O=C(/C=C/c1cccc(S(=O)(=O)Nc2ccccc2)c1)NO` [belinostat], the IC50 [7] is listed as 60 nM.

In the case of `Nc1ccccc1NC(=O)c1ccc(CNC(=O)OCc2cccnc2)cc1` [entinostat], the IC50 [7] is listed as 7800 nM.

For `Cc1[nH]c2ccccc2c1CCNCc1ccc(/C=C/C(=O)NO)cc1` [panobinostat], the IC50 [7] is given as 10 nM.

For `Cn1cc(CNCC2CCN(c3ncc(C(=O)NO)cn3)CC2)c2ccccc21` [quisinostat], the IC50 [7] is given as 5 nM.
